The results in this text go back to article doi:10.1101/2025.06.07.658027v2 (biorxiv, 2025).

Common to all, as to assay: two-electrode voltage clamp, Xenopus oocytes
Holding throughout (format): cell-based
Background: Two-electrode voltage clamp holds a large cell at a set potential and records current.

In one test the target is T1, AalbOR2 (Aedes albopictus, UniProt A0ABM1YVB6).
T1 sequence (A0ABM1YVB6 1-376): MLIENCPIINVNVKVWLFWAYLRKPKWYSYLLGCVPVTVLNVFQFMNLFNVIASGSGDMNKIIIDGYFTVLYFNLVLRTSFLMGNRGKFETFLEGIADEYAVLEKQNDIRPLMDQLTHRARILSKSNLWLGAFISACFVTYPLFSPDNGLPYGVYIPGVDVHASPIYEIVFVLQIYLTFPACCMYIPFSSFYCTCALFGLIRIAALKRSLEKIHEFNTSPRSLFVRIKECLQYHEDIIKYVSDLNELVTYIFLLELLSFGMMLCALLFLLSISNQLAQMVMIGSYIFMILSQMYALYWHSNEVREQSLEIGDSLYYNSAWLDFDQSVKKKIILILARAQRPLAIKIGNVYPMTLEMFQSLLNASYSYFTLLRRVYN
T1 sequence (A0ABM1ZN50 1-479 partner): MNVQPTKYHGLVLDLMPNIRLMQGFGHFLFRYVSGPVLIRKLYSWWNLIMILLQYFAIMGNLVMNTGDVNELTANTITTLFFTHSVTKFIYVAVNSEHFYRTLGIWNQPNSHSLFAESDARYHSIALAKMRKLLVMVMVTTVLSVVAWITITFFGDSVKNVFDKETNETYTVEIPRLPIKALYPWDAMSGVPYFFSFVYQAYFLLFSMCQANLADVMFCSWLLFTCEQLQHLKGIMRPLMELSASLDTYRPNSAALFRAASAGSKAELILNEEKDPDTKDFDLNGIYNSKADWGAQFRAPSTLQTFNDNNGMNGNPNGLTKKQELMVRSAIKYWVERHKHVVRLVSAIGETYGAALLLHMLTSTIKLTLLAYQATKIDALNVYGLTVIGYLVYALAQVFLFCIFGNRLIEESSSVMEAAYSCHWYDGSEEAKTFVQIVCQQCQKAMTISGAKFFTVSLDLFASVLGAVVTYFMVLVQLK

A further test deals with T2, AalbOR9 (Aedes albopictus, UniProt A0ABM1YMM4).
T2 sequence (A0ABM1YMM4 1-377): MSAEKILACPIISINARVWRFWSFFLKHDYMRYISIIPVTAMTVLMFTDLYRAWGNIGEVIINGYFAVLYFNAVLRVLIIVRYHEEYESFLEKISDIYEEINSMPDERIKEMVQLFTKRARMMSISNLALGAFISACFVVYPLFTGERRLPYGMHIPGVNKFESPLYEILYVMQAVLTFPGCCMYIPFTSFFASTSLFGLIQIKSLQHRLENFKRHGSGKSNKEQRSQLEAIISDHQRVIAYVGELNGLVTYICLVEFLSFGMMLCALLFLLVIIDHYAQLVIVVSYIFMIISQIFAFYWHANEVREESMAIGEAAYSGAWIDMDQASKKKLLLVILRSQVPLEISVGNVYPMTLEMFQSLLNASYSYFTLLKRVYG
T2 sequence (A0ABM1ZN50 1-479 partner): T1 sequence (A0ABM1ZN50 1-479 partner)

The next test deals with T3, AalbOR10 (Aedes albopictus, UniProt A0ABM1Y0Z3).
T3 sequence (A0ABM1Y0Z3 1-403): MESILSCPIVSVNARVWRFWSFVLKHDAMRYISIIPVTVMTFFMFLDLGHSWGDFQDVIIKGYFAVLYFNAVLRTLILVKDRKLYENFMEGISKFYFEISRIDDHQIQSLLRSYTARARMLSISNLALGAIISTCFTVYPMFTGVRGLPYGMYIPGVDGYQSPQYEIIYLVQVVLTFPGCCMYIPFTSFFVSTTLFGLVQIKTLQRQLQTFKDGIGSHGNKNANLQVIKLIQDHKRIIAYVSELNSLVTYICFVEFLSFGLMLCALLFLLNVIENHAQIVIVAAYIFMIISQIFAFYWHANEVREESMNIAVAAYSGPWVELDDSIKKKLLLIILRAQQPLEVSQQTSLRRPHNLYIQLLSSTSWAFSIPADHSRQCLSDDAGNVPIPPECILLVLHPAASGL
T3 sequence (A0ABM1ZN50 1-479 partner): T1 sequence (A0ABM1ZN50 1-479 partner)

Regarding `c1ccc2[nH]ccc2c1` [indole], the values for the EC50 at AalbOR2, on AalbOR9 and at AalbOR10 were 0.77 µM, 1.7 µM and 23.7 µM, respectively.

On to `Cc1c[nH]c2ccccc12` [skatole], for which the values for the EC50 on AalbOR2, on AalbOR9 and on AalbOR10 were 10.1 µM, 0.054 µM and 3.9 µM, respectively.

The term EC50 denotes the midpoint of the concentration-response curve. Low values mean a more potent agent, high ones a less potent agent.
